Tests used:
in vitro [1] = type: cell-based; conditions: African green monkey
Procedure: The antiviral activity of the compounds of the invention was tested against DENV-1 strain TC974#666 (NCPV), DENV-2 strain 16681, DENV-3 strain H87 (NCPV) and DENV-4 strain H241 (NCPV) in a RT-qPCR assay. Therefore, Vero cells were infected with either DENV-1, or -2, or -3, or -4 in the presence or absence of test compounds. At day 3 post-infection, the cells were lysed and cell lysates were used to prepare cDNA of both a viral target (the 3′UTR of DENV; Table 2) and a cellular reference gene (1-actin, Table 2). Subsequently, a duplex real time PCR was performed on a Lightcycler480 instrument. The generated Cp value is inversely proportional to the amount of RNA expression of these targets. Inhibition of DENV replication by a test compound results in a shift of Cp's for the 3′UTR gene. On the other hand, if a test compound is toxic to the cells, a similar effect on 1-actin expression will be observed. […] In addition, CC50 values are determined based on the C, values acquired for the housekeeping gene β-actin. […]
(§1) Using the LightCycler software and an in-house LIMS system, dose response curves for each compound were calculated and the half maximal effective concentration (EC50) and the half maximal cytotoxic concentration (CC50) were determined (Tables 5-8).

DENV-3 strain H87 = assay: Tetravalent RT-qPCR assay, serotype 3; type: cell-based; conditions: Dengue virus, DENV3, 72 h; RT-qPCR serotype 3 H87, Vero cells, day 3
Procedure: (§2) The antiviral activity of the compounds of the invention was tested against DENV-1 strain TC974#666 (NCPV), DENV-2 strain 16681, DENV-3 strain H87 (NCPV) and DENV-4 strain H241 (NCPV) in a RT-qPCR assay. Therefore, Vero cells were infected with either DENV-1, or -2, or -3, or -4 in the presence or absence of test compounds. At day 3 post-infection, the cells were lysed and cell lysates were used to prepare cDNA of both a viral target (the 3′UTR of DENV; Table 2) and a cellular reference gene (1-actin, Table 2). Subsequently, a duplex real time PCR was performed on a Lightcycler480 instrument. The generated Cp value is inversely proportional to the amount of RNA expression of these targets. Inhibition of DENV replication by a test compound results in a shift of Cp's for the 3′UTR gene. On the other hand, if a test compound is toxic to the cells, a similar effect on 1-actin expression will be observed. The comparative ΔΔCp method is used to calculate EC50, which is based on the relative gene expression of the target gene (3′UTR) normalized with the cellular housekeeping gene (1-actin). In addition, CC50 values are determined based on the C, values acquired for the housekeeping gene β-actin.
(§3) The culture medium consisted of minimal essential medium supplemented with 2% of heat-inactivated fetal calf serum, 0.04% gentamycin (50 mg/mL) and 2 mM of L-glutamine. Vero cells, obtained from ECACC, were suspended in culture medium and 75 μL/well was added in 96-well plates (10000 cells/well), which already contain the antiviral compounds. […] In addition, each plate contains wells which are assigned as virus controls (containing cells and virus in the absence of compound) and cell controls (containing cells in the absence of virus and compound). Once the cells were added in the plates, the plates were incubated in a fully humidified incubator (37° C., 5% CO2) until the next day. Dengue viruses serotype-1, 2, 3 and 4 were diluted in order to obtain a Cp of ˜22-24 in the assay. Therefore, 25 μL of virus suspension was added to all the wells containing test compound and to the wells assigned as virus control. In parallel, 25 μL of culture medium was added to the cell controls. Next, the plates were incubated for 3 days in a fully humidified incubator (37° C., 5% CO2). After 3 days, the supernatant was removed from the wells and the cells were washed twice with ice-cold PBS (−100 μL). The cell pellets within the 96-well plates were stored at −80° C. for at least 1 day. Next, RNA was extracted using the Cells-to-CT™ lysis kit, according to the manufacturer's guideline (Life Technologies). The cell lysates can be stored at −80° C. or immediately used in the reverse transcription step.
(§4) In preparation of the reverse transcription step, mix A (table 3A) was prepared and 7.57 μL/well was dispensed in a 96-well plate. After addition of 5 μL of the cell lysates, a five minute denaturation step at 75° C. was performed (table 3B). Afterwards, 7.43 μL of mix B was added (table 3C) and the reverse transcription step was initiated (table 3D) to generate cDNA.
(§5) Finally, a RT-qPCR mix was prepared, mix C (table 4A), and 22.02 μL/well was dispensed in 96-well LightCycler qPCR plates to which 3 μL of cDNA was added and the qPCR was performed according to the conditions in table 4B on a LightCycler 480.
as §1

DENV-2 strain 16681 = assay: Tetravalent RT-qPCR assay, serotype 2; type: cell-based; conditions: Dengue virus, DENV2, 72 h; RT-qPCR serotype 2 16681, Vero cells, day 3
Procedure: as §2, §3, §4, §5, §1

in vitro [2] = conditions: African green monkey
DENV-2 16681 strain = assay: DENV-2 antiviral assay (eGFP-labeled virus in Vero cells); type: cell-based, Dengue virus; conditions: DENV-2 16681 eGFP, MOI 0.5, 3 days
Procedure: The antiviral activity of all the compounds of the invention was tested against the DENV-2 16681 strain which was labeled with enhanced green fluorescent protein (eGPF). The culture medium consists of minimal essential medium supplemented with 2% of heat-inactivated fetal calf serum, 0.04% gentamycin (50 mg/mL) and 2 mM of L-glutamine. Vero cells, obtained from ECACC, were suspended in culture medium and 25 μL was added to 384-well plates (2500 cells/well), which already contain the antiviral compounds. Typically, these plates contain a 5-fold serial dilution of 9 dilution steps of the test compound at 200 times the final concentration in 100% DMSO (200 nL). […] Finally, each plate contains wells which are assigned as virus controls (containing cells and virus in the absence of compound), cell controls (containing cells in the absence of virus and compound) and medium controls (containing medium in the absence of cells, virus and compounds). To the wells assigned as medium control, 25 μL of culture medium was added instead of Vero cells. Once the cells are added to the plates, the plates were incubated for 30 minutes at room temperature to allow the cells to distribute evenly within the wells. Next, the plates were incubated in a fully humidified incubator (37° C., 5% CO2) until the next day. Then, DENV-2 strain 16681, labeled with eGFP, was added at a multiplicity of infection (MOI) of 0.5.
Therefore, 15 μL of virus suspension was added to all the wells containing test compound and to the wells assigned as virus control. In parallel, 15 μL of culture medium was added to the medium and cell controls. Next, the plates were incubated for 3 days in a fully humidified incubator (37° C., 5% CO2). At the day of the read out, the eGFP fluorescence was measured using an automated fluorescence microscope at 488 nm (blue laser). Using an in-house LIMS system, inhibition dose response curves for each compound were calculated and the half maximal effective concentration (EC50) was determined. Therefore, the percent inhibition (I) for every test concentration is calculated using the following formula: I=100*(ST−SCC)/(SVC−SCC); ST, SCC and SVC are the amount of eGFP signal in the test compound, cell control and virus control wells, respectively. The EC50 represents the concentration of a compound at which the virus replication is inhibited with 50%, as measured by a 50% reduction of the eGFP fluorescent intensity compared to the virus control. The EC50 is calculated using linear interpolation (Table 1).

DENV-1 strain TC974#666 = assay: Tetravalent RT-qPCR assay, serotype 1; type: cell-based; conditions: Dengue virus, DENV1, 72 h; RT-qPCR serotype 1 TC974#666, Vero cells, day 3
Procedure: as §2, §3, §4, §5, §1

DENV-4 strain H241 = assay: Tetravalent RT-qPCR assay, serotype 4; type: cell-based; conditions: Dengue virus, DENV4, 72 h; RT-qPCR serotype 4 H241, Vero cells, day 3
Procedure: as §2, §3, §4, §5, §1

[3] = Toxicity in DENV-2 antiviral assay plates (ATPlite cell viability); conditions: African green monkey, CC50, Vero cells, same plates as DENV-2 antiviral assay
Vero cells = conditions: African green monkey

SMILES	CC50 at 3 days (in vitro [1])	EC50 (DENV-3 strain H87)	EC50 (DENV-2 strain 16681)	CC50 (in vitro [2])	EC50 (DENV-2 16681 strain)	EC50 (DENV-1 strain TC974#666)	EC50 (DENV-4 strain H241)	CC50 [3]	CC50 (Vero cells)
COc1cc(NC(C(=O)N2CCc3cc(F)c(C(F)(F)F)cc32)c2ccc(Cl)cc2)cc(OCCCC(=O)O)c1 (single isomer, unassigned) [Compound 3B, 4-(3-((1-(4-chlorophenyl)-2-(5-fluoro-6-(trifluoromethyl)indolin-1-yl)-2-oxoethyl)amino)-5-methoxyphenoxy)butanoic acid]	> 2500 nM	1.5 nM	0.096 nM	13000 nM	0.12 nM	0.1 nM	14 nM		
COc1cc(NC(C(=O)N2CCc3c(C)cc(OC(F)(F)F)cc32)c2ccc(Cl)cc2)cc(OCCCC(=O)O)c1 (single isomer, unassigned) [Compound 4A, 4-(3-((1-(4-chlorophenyl)-2-(4-methyl-6-(trifluoromethoxy)indolin-1-yl)-2-oxoethyl)amino)-5-methoxyphenoxy)butanoic acid]					11 nM			13000 nM	
COc1cc(NC(C(=O)N2CCc3cc(F)c(C(F)(F)F)cc32)c2ccc(Cl)cc2)cc(OCCCC(=O)O)c1 (single isomer, unassigned) [Compound 3A, 4-(3-((1-(4-chlorophenyl)-2-(5-fluoro-6-(trifluoromethyl)indolin-1-yl)-2-oxoethyl)amino)-5-methoxyphenoxy)butanoic acid]					36 nM			12000 nM	
COc1cc(NC(C(=O)N2CCc3ccc(S(F)(F)(F)(F)F)cc32)c2ccc(Cl)cc2)cc(OCCCC(=O)O)c1 (single isomer, unassigned) [Compound 1B, 4-(3-((1-(4-chlorophenyl)-2-oxo-2-(6-(pentafluoro-λ^6-sulfanyl)indolin-1-yl)ethyl)amino)-5-methoxyphenoxy)butanoic acid]		1.9 nM	0.18 nM		0.11 nM	0.096 nM	9.6 nM		13000 nM
COc1cc(NC(C(=O)N2CCc3sc(C(F)(F)F)cc32)c2ccc(Cl)cc2)cc(OCCCC(=O)O)c1 (single isomer, unassigned) [Compound 10B, 4-(3-((1-(4-chlorophenyl)-2-oxo-2-(2-(trifluoromethyl)-5,6-dihydro-4H-thieno[3,2-b]pyrrol-4-yl)ethyl)amino)-5-methoxyphenoxy)butanoic acid]					37 nM				12000 nM
COc1cc(NC(C(=O)N2CCc3c(C)cc(C(F)(F)F)cc32)c2ccc(Cl)cc2)cc(OCCCC(=O)O)c1 (single isomer, unassigned) [Compound 2B, 4-(3-((1-(4-chlorophenyl)-2-(4-methyl-6-(trifluoromethyl)indolin-1-yl)-2-oxoethyl)amino)-5-methoxyphenoxy)butanoic acid]		0.85 nM	0.061 nM		0.078 nM	0.091 nM	10 nM		14000 nM
COc1cc(NC(C(=O)N2CCc3cc(F)c(OC(F)(F)F)cc32)c2ccc(Cl)cc2)cc(OCCCC(=O)O)c1 (single isomer, unassigned) [Compound 5B, 4-(3-((1-(4-chlorophenyl)-2-(5-fluoro-6-(trifluoromethoxy)indolin-1-yl)-2-oxoethyl)amino)-5-methoxyphenoxy)butanoic acid]		2.6 nM	0.29 nM		0.12 nM	0.33 nM	20 nM		12000 nM
COc1cc(NC(C(=O)N2CCc3sc(C(F)(F)F)cc32)c2ccc(Cl)cc2)cc(OCCCC(=O)O)c1 (single isomer, unassigned) [Compound 10A, 4-(3-((1-(4-chlorophenyl)-2-oxo-2-(2-(trifluoromethyl)-5,6-dihydro-4H-thieno[3,2-b]pyrrol-4-yl)ethyl)amino)-5-methoxyphenoxy)butanoic acid]		4.2 nM	0.11 nM	14000 nM	0.3 nM	0.22 nM	30 nM		
[2H]C(Nc1cc(OC)cc(OCCCC(=O)O)c1)(C(=O)N1CCc2ccc(OC(F)(F)F)cc21)c1ccc(Cl)cc1 (single isomer, unassigned) [Compound 7A-D, 4-(3-((1-(4-chlorophenyl)-1-deuterio-2-oxo-2-(6-(trifluoromethoxy)indolin-1-yl)ethyl)amino)-5-methoxyphenoxy)butanoic acid]		2.4 nM	0.16 nM	12000 nM	0.1 nM	0.24 nM	13 nM		
COc1cc(NC(C(=O)N2CCc3c(C)cc(OC(F)(F)F)cc32)c2ccc(Cl)cc2)cc(OCCCC(=O)O)c1 (single isomer, unassigned) [Compound 4B, 4-(3-((1-(4-chlorophenyl)-2-(4-methyl-6-(trifluoromethoxy)indolin-1-yl)-2-oxoethyl)amino)-5-methoxyphenoxy)butanoic acid]		0.92 nM	0.067 nM	13000 nM	0.057 nM	0.11 nM	12 nM		
[2H]C(Nc1cc(OC)cc(OCCCC(=O)O)c1)(C(=O)N1CCc2ccc(OC(F)(F)F)cc21)c1ccc(Cl)cc1 (single isomer, unassigned) [Compound 7B-D, 4-(3-((1-(4-chlorophenyl)-1-deuterio-2-oxo-2-(6-(trifluoromethoxy)indolin-1-yl)ethyl)amino)-5-methoxyphenoxy)butanoic acid]					16 nM				9600 nM
